In brackets after ≈: the same amount, converted by molar mass. Read-outs that look alike come from different tables or passages of the source. *1 amine or outer side, *2 acyl side, *3 side chain or, on linkers, in order; H or OH if unused. Where a SMILES comes first, the peptide text is derived from it. Bridges are numbered along the chain shown (N, C = ends). [ ]: non-standard residue; d: D form. The star is where a group is joined. Phe(3R-OH) = O=C([C@@H](N[*:1])[C@H](O[*:3])c1ccccc1)[*:2]; Phe(4-NO2) = N[C@@H](Cc1ccc([N+](=O)[O-])cc1)C(=O)O; Phe(3,4-(OMe)2) = COc1ccc(C[C@H](N)C(=O)O)cc1OC; Asn(3S-OH) = NC(=O)[C@@H](O)[C@H](N)C(=O)O; Leu(3R-OH) = CC(C)[C@@H](O)[C@H](N)C(=O)O; dAla(TMS) = C[Si](C)(C)C[C@@H](N)C(=O)O; d(tBuAla) = CC(C)(C)C[C@@H](N)C(=O)O; tBuAla = CC(C)(C)C[C@H](N)C(=O)O; 3Pal = N[C@@H](Cc1cccnc1)C(=O)O; aThr = C[C@H](O)[C@H](N)C(=O)O; dOrn = NCCC[C@@H](N)C(=O)O; Ac6c = NC1(C(=O)O)CCCCC1; Cbz = O=C(OCc1ccccc1)*; tBu = CC(C)(C)*
Tests used:
E. faecalis ICB 27159 = format: cell-based, Enterococcus faecalis
Description: (§1) Determination of the Minimum Inhibitory Concentration (MIC):
(§2) The MIC is determined in the liquid dilution test in accordance with the NCCLS guidelines. Overnight cultures of Staphylococcus aureus 133, Enterococcus faecalis 27159, E. faecium 4147 and Streptococcus pneumoniae G9a are incubated with the desired test substances in a 1:2 dilution series. The MIC determination is carried out with a cell count of 10^5 microbes per ml in Isosensitest medium (Difco, Irvine/USA), with the exception of S. pneumoniae which is tested in BHI broth (Difco, Irvine/USA) with 10% bovine serum with a cell count of 10^6 microbes per ml. The cultures are incubated at 37° C. for 18-24 hours, S. pneumoniae in the presence of 10% CO2.
(§3) The MIC is defined as the lowest concentration of each substance at which visible bacterial growth no longer occurs. The MIC values are reported in μg/ml.

E. faecium L4001 = format: cell-based, Enterococcus faecium
[1] = test system: Streptococcus pneumoniae G9a; format: cell-based
Description: as §1, §2, §3

[2] = test system: Staphylococcus aureus 133; format: cell-based
Description: as §1, §2, §3

[3] = Isosensitest medium, 10^5 microbes per ml, 37° C., 18-24 hours

| Structure (SMILES) | MIC E. faecalis ICB 27159 (E. faecalis ICB 27159; ICB 27159) | MIC E. faecium L4001 (E. faecium L4001; L4001) | MIC S. pneumoniae ([1]; G9a) | MIC S. aureus 133 [2]; 133 | MIC E. faecalis ICB 27159 (E. faecalis ICB 27159; [3]) | MIC E. faecium L4001 (E. faecium L4001; [3]) | MIC S. pneumoniae ([1]; BHI broth with 10% bovine serum, 10^6 microbes per ml, 10% CO2, 37° C., 18-24 hours) | MIC S. aureus 133 [2, 3] |
| --- | --- | --- | --- | --- | --- | --- | --- | --- |
| CC[C@H](C)[C@@H]1NC(=O)[C@@H](CCCNC(=N)N)NC(=O)[C@H](CC(C)C)NC(=O)[C@H]([C@H](O)C(C)C)NC(=O)[C@@H](NC(=O)[C@H](CC(C)C)NC(=O)[C@H](N)Cc2ccccc2)[C@@H](c2ccccc2)OC(=O)[C@H](CO)NC(=O)[C@H]([C@H](O)C(N)=O)NC(=O)CNC(=O)[C@H]([C@H](C)O)NC1=O [Example 38, D-Phenylalanyl-de(1-D-leucyl)lysobactin bistrifluoracetate] (H-[dF]L[Phe(3R-OH)][Leu(3R-OH)]L[dR]I[aThr]G[Asn(3S-OH)]S; ester 3-C) | 1 µg/mL (≈ 0.763 µM) | 0.5 µg/mL (≈ 0.382 µM) | 0.063 µg/mL (≈ 0.0481 µM) | 0.125 µg/mL (≈ 0.0954 µM) | – | – | – | – |
| CC[C@H](C)[C@@H]1NC(=O)[C@@H](CCCNC(=N)N)NC(=O)[C@H](CC(C)C)NC(=O)[C@H]([C@H](O)C(C)C)NC(=O)[C@@H](NC(=O)[C@H](CC(C)C)NC(=O)[C@H](N)COC(C)(C)C)[C@@H](c2ccccc2)OC(=O)[C@H](CO)NC(=O)[C@H]([C@H](O)C(N)=O)NC(=O)CNC(=O)[C@H]([C@H](C)O)NC1=O [Example 47, [O-(tert-Butyl)-D-seryl]-de(1-D-leucyl)lysobactin bistrifluoroacetate] (H-[dS](tBu)L[Phe(3R-OH)][Leu(3R-OH)]L[dR]I[aThr]G[Asn(3S-OH)]S; ester 3-C) | 2 µg/mL (≈ 1.53 µM) | 1 µg/mL (≈ 0.765 µM) | 0.25 µg/mL (≈ 0.191 µM) | 0.25 µg/mL (≈ 0.191 µM) | – | – | – | – |
| CC[C@H](C)[C@@H]1NC(=O)[C@@H](CCCNC(=N)N)NC(=O)[C@H](CC(C)C)NC(=O)[C@H]([C@H](O)C(C)C)NC(=O)[C@@H](NC(=O)[C@H](CC(C)C)NC(=O)[C@@H](N)Cc2ccccc2)[C@@H](c2ccccc2)OC(=O)[C@H](CO)NC(=O)[C@H]([C@H](O)C(N)=O)NC(=O)CNC(=O)[C@H]([C@H](C)O)NC1=O [Example 48, L-Phenylalanyl-de(1-D-leucyl)lysobactin bistrifluoroacetate] (H-FL[Phe(3R-OH)][Leu(3R-OH)]L[dR]I[aThr]G[Asn(3S-OH)]S; ester 3-C) | 0.5 µg/mL (≈ 0.382 µM) | 0.25 µg/mL (≈ 0.191 µM) | 0.125 µg/mL (≈ 0.0954 µM) | 0.125 µg/mL (≈ 0.0954 µM) | – | – | – | – |
| CC[C@H](C)[C@@H]1NC(=O)[C@@H](CCCNC(=N)N)NC(=O)[C@H](CC(C)C)NC(=O)[C@H]([C@H](O)C(C)C)NC(=O)[C@@H](NC(=O)[C@H](CC(C)C)NC(=O)C2(N)CCCCC2)[C@@H](c2ccccc2)OC(=O)[C@H](CO)NC(=O)[C@H]([C@H](O)C(N)=O)NC(=O)CNC(=O)[C@H]([C@H](C)O)NC1=O [Example 57, N-(1-Aminocyclohexyl)carbonyl-de(1-D-leucyl)lysobactin bistrifluoroacetate] (H-[Ac6c]L[Phe(3R-OH)][Leu(3R-OH)]L[dR]I[aThr]G[Asn(3S-OH)]S; ester 3-C) | 1 µg/mL (≈ 0.776 µM) | 1 µg/mL (≈ 0.776 µM) | 0.25 µg/mL (≈ 0.194 µM) | 0.5 µg/mL (≈ 0.388 µM) | – | – | – | – |
| CC[C@H](C)[C@@H]1NC(=O)[C@@H](CCCNC(=N)N)NC(=O)[C@H](CC(C)C)NC(=O)[C@H]([C@H](O)C(C)C)NC(=O)[C@@H](NC(=O)[C@H](CC(C)C)NC(=O)[C@H](N)C[Si](C)(C)C)[C@@H](c2ccccc2)OC(=O)[C@H](CO)NC(=O)[C@H]([C@H](O)C(N)=O)NC(=O)CNC(=O)[C@H]([C@H](C)O)NC1=O [Example 59, 3-(Trimethylsilyl-D-alanyl-de(1-D-leucyl)lysobactin bistrifluoroacetate] (H-[dAla(TMS)]L[Phe(3R-OH)][Leu(3R-OH)]L[dR]I[aThr]G[Asn(3S-OH)]S; ester 3-C) | 0.25 µg/mL (≈ 0.191 µM) | 0.25 µg/mL (≈ 0.191 µM) | <0.063 µg/mL | 0.125 µg/mL (≈ 0.0957 µM) | – | – | – | – |
| CC[C@H](C)[C@@H]1NC(=O)[C@@H](CCCNC(=N)N)NC(=O)[C@H](CC(C)C)NC(=O)[C@H]([C@H](O)C(C)C)NC(=O)[C@@H](NC(=O)[C@H](CC(C)C)NC(=O)[C@H](N)CCCNC(=O)OCc2ccccc2)[C@@H](c2ccccc2)OC(=O)[C@H](CO)NC(=O)[C@H]([C@H](O)C(N)=O)NC(=O)CNC(=O)[C@H]([C@H](C)O)NC1=O [Example 62, N^6-[(Benzyloxy)carbonyl]-D-ornithyl-de(1-D-leucyl)lysobactin bistrifluoroacetate] (H-[dOrn](Cbz)L[Phe(3R-OH)][Leu(3R-OH)]L[dR]I[aThr]G[Asn(3S-OH)]S; ester 3-C) | 1 µg/mL (≈ 0.708 µM) | 0.5 µg/mL (≈ 0.354 µM) | 0.5 µg/mL (≈ 0.354 µM) | 0.25 µg/mL (≈ 0.177 µM) | – | – | – | – |
| CC[C@H](C)[C@@H]1NC(=O)[C@@H](CCCNC(=N)N)NC(=O)[C@H](CC(C)C)NC(=O)[C@H]([C@H](O)C(C)C)NC(=O)[C@@H](NC(=O)[C@H](CC(C)(C)C)NC(=O)[C@H](N)CC(C)(C)C)[C@@H](c2ccccc2)OC(=O)[C@H](CO)NC(=O)[C@H]([C@H](O)C(N)=O)NC(=O)CNC(=O)[C@H]([C@H](C)O)NC1=O.O=C(O)C(F)(F)F.O=C(O)C(F)(F)F [Example 68] (H-[d(tBuAla)][tBuAla][Phe(3R-OH)][Leu(3R-OH)]L[dR]I[aThr]G[Asn(3S-OH)]S; ester 3-C) | 0.5 µg/mL | 0.5 µg/mL | 0.031 µg/mL | 0.125 µg/mL | – | – | – | – |
| CC[C@H](C)[C@@H]1NC(=O)[C@@H](CCCNC(=N)N)NC(=O)[C@H](CC(C)C)NC(=O)[C@H]([C@H](O)C(C)C)NC(=O)[C@@H](NC(=O)[C@H](Cc2cccnc2)NC(=O)[C@H](N)CC(C)(C)C)[C@@H](c2ccccc2)OC(=O)[C@H](CO)NC(=O)[C@H]([C@H](O)C(N)=O)NC(=O)CNC(=O)[C@H]([C@H](C)O)NC1=O [Example 69, 3-tert-Butyl-D-alanyl-3-(3-pyridyl)-L-alanyl-de(1-D-leucyl-2-L-leucyl)lysobactin tristrifluoroacetate] (H-[d(tBuAla)][3Pal][Phe(3R-OH)][Leu(3R-OH)]L[dR]I[aThr]G[Asn(3S-OH)]S; ester 3-C) | 1 µg/mL (≈ 0.754 µM) | 1 µg/mL (≈ 0.754 µM) | 0.5 µg/mL (≈ 0.377 µM) | 0.5 µg/mL (≈ 0.377 µM) | – | – | – | – |
| CC[C@H](C)[C@@H]1NC(=O)[C@@H](CCCNC(=N)N)NC(=O)[C@H](CC(C)C)NC(=O)[C@H]([C@H](O)C(C)C)NC(=O)[C@@H](NC(=O)[C@H](Cc2ccccc2)NC(=O)[C@H](N)CC(C)C)[C@@H](c2ccccc2)OC(=O)[C@H](CO)NC(=O)[C@H]([C@H](O)C(N)=O)NC(=O)CNC(=O)[C@H]([C@H](C)O)NC1=O.O=C(O)C(F)(F)F.O=C(O)C(F)(F)F [Example 74, D-Leucyl-L-phenylalanyl-de(1-D-leucyl-2-L-leucyl)lysobactin bistrifluoroacetate] (H-[dL]F[Phe(3R-OH)][Leu(3R-OH)]L[dR]I[aThr]G[Asn(3S-OH)]S; ester 3-C) | 1 µg/mL | 0.5 µg/mL | 0.063 µg/mL | 0.125 µg/mL | – | – | – | – |
| CC[C@H](C)[C@@H]1NC(=O)[C@@H](CCCNC(=N)N)NC(=O)[C@H](CC(C)C)NC(=O)[C@H]([C@H](O)C(C)C)NC(=O)[C@@H](NC(=O)[C@H](Cc2ccc([N+](=O)[O-])cc2)NC(=O)[C@H](N)Cc2ccccc2)[C@@H](c2ccccc2)OC(=O)[C@H](CO)NC(=O)[C@H]([C@H](O)C(N)=O)NC(=O)CNC(=O)[C@H]([C@H](C)O)NC1=O.O=C(O)C(F)(F)F.O=C(O)C(F)(F)F [Example 81, D-Phenylalanyl-4-nitro-L-phenylalanyl-de(1-D-leucyl-2-L-leucyl)lysobactine bistrifluoroacetate] (H-[dF][Phe(4-NO2)][Phe(3R-OH)][Leu(3R-OH)]L[dR]I[aThr]G[Asn(3S-OH)]S; ester 3-C) | 0.25 µg/mL | 0.25 µg/mL | 0.25 µg/mL | 0.5 µg/mL | – | – | – | – |
| CC[C@H](C)[C@@H]1NC(=O)[C@@H](CCCNC(=N)N)NC(=O)[C@H](CC(C)C)NC(=O)[C@H]([C@H](O)C(C)C)NC(=O)[C@@H](NC(=O)[C@H](Cc2ccccc2)NC(=O)[C@H](N)Cc2ccccc2)[C@@H](c2ccccc2)OC(=O)[C@H](CO)NC(=O)[C@H]([C@H](O)C(N)=O)NC(=O)CNC(=O)[C@H]([C@H](C)O)NC1=O.O=C(O)C(F)(F)F.O=C(O)C(F)(F)F [Example 82, D-Phenylalanyl-L-phenylalanyl-de(1-D-leucyl-2-L-leucyl)lysobactine bistrifluoroacetate] (H-[dF]F[Phe(3R-OH)][Leu(3R-OH)]L[dR]I[aThr]G[Asn(3S-OH)]S; ester 3-C) | 1 µg/mL | 0.5 µg/mL | 0.125 µg/mL | 0.125 µg/mL | – | – | – | – |
| CC[C@H](C)[C@@H]1NC(=O)[C@@H](CCCNC(=N)N)NC(=O)[C@H](CC(C)C)NC(=O)[C@H]([C@H](O)C(C)C)NC(=O)[C@@H](NC(=O)[C@H](Cc2ccc(OC)c(OC)c2)NC(=O)[C@H](N)CC(C)(C)C)[C@@H](c2ccccc2)OC(=O)[C@H](CO)NC(=O)[C@H]([C@H](O)C(N)=O)NC(=O)CNC(=O)[C@H]([C@H](C)O)NC1=O [Example 86, 3-tert-Butyl-D-alanyl-3-(3,4-dimethoxyphenyl)-L-alanyl-de(1-D-leucyl-2-L-leucyl)lysobactin bistri-fluoroacetate] (H-[d(tBuAla)][Phe(3,4-(OMe)2)][Phe(3R-OH)][Leu(3R-OH)]L[dR]I[aThr]G[Asn(3S-OH)]S; ester 3-C) | – | – | – | – | 0.5 µg/mL (≈ 0.361 µM) | 1 µg/mL (≈ 0.722 µM) | 0.125 µg/mL (≈ 0.0903 µM) | 0.25 µg/mL (≈ 0.181 µM) |

Source: US7368424B2, “Acylated nonadepsipeptides” (AiCuris GmbH & Co. KG, priority 2003, dated 2008)
